Source: patent US20050209157A1, “Short bioactive peptides and methods for their use” (priority 2001, published 2005)
No end group written: not given here.

Tests used:
[1] = tested on: Pseudomonas aeruginosa ATCC 9027; assay: Antimicrobial assay I, MIC by OD measurement; type: cell-based; settings: 37° C. for 24 hours, absorbance 620 nm
Source text: (§1) The data for the following antimicrobial assay of the peptides have been obtained by making OD measurements in in vitro cell culture experiments with and without added peptide. The protocol used is as follows.
(§2) Cell lines included Staphylococcus aureus ATCC 6538 or 25923, Pseudomonas aeruginosa ATCC 9027 or 27853. Medium used were Antibiotic Medium 3 (Difco), Antibiotic Medium 2 (Difco), and 0.85% saline. Controls used were physiological saline, and gentamycin at 50, 25, 10, 5, 1, and 0.1 ppm.
(§3) Absorbance was read at 620 nm after shaking to resuspend cells.
(§4) Staph6538 is Staphylococcus aureus ATCC accession number 6538; paerug9027 is Pseudomonas aeruginosa ATCC accession number 9027, yeast is Saccharomyces cerevisiae.

[2] = tested on: Staphylococcus aureus ATCC 6538; assay: Antimicrobial assay I, MIC by OD measurement; type: cell-based; settings: 37° C. for 24 hours, absorbance 620 nm
Source text: as §1, §2, §3, §4

[3] = tested on: yeast (Saccharomyces cerevisiae); assay: Antimicrobial assay I, yeast assay in RPMI 1640; type: cell-based; settings: RPMI 1640 media
Description: as §1, §3
The yeast assay was performed in RPMI 1640 media (pH 7.0 at 25° C.).
as §4

in vitro [4] = type: cell-based, human; settings: human, human red blood cells, pH 7, hemolytic assay, concentration at 50% hemolysis, 1 hour at 37° C.; read-out: LD50
Description: This hemolytic assay is based upon that presented in Journal of Peptide Research 53: 82-90 (1999). […] All procedures were performed according to safety protocols pertaining to the handling and disposal of human body fluids.
Red blood cells (RBCs) were washed three times with PBS (35 mM phosphate buffer 0.15 M NaCl, pH 7.0). RBCs suspended in PBS (0.4% (v/v); about 10 ml per 15 peptides) were prepared. Suspensions (100 μl) were aliquoted to each sample and control tube. Serially diluted peptide solutions (100 μl) were pipetted into the sample tubes. Negative control tubes contained 100 μl PBS; positive control tubes contained 100 μl 1% Triton-X100 detergent. All tubes were incubated for 1 hour at 37° C. The tubes were removed from the incubator and centrifuged at 1000 g for 5 minutes. Supernatant (100 μl) was pipetted to a 96-well polyvinyl chloride plate. The absorbance at 414 nm (A414) was measured, and used to calculate the percent hemolysis according to the following formula. [formula]

BMKC = assay: Anti-cancer assay, MTT, LD50; type: cell-based; settings: BMKC cloned melanoma line, 24 hours with peptide
Source text: (§5) Numbers are LD50 values (μg/mL).

H1299 = assay: Anti-cancer assay, MTT, LD50; type: cell-based; settings: 24 hours with peptide, lung large cell carcinoma
Source text: as §5

HeLaS3 = assay: Anti-cancer assay, MTT, LD50; type: cell-based; settings: 24 hours with peptide, cervical carcinoma
Source text: as §5

MCF7 = assay: Anti-cancer assay, MTT, LD50; type: cell-based; settings: MCF7 breast adenocarcinoma line, MTT, 24 hours with peptide
Source text: as §5

PC3 = assay: Anti-cancer assay, MTT, LD50; type: cell-based; settings: 24 hours with peptide, prostate adenocarcinoma
Source text: as §5

SW480 = assay: Anti-cancer assay, MTT, LD50; type: cell-based; settings: SW480 colon adenocarcinoma line, 24 hours with peptide
Source text: as §5

WI38 = settings: MTT, 24 hours with peptide; for WI38 LD50: normal fibroblast line; for LD50 WI38: WI38 normal lung fibroblast line
in vitro [5] = settings: human, WI38 normal lung fibroblast cells, LD50 WI38, WI38 normal lung fibroblast line, MTT, 24 hours with peptide

Molecule | paerug9027 (MIC) [1] | staph6538 (MIC) [2] | yeast (MIC or MFC) [3] | HC50 at 1 h (in vitro [4]) [µg/mL] | LD50 BMKC (BMKC) | H1299 LD50 (H1299) | HeLaS3 LD50 (HeLaS3) | LD50 MCF7 (MCF7) | PC3 LD50 (PC3) | LD50 SW480 (SW480) | WI38 LD50 (WI38) | CC50 at 24 h (in vitro [5]) [µg/mL] | LD50 WI38 (WI38)
FALALKALKKALKKLKKALKKAL-OH [P1, reference compound] | 10 µg/mL | 5 µg/mL | > (> indicates greater than 200 μg/mL) | 100 | – | – | – | – | – | – | – | – | –
KWKLAKKALALL-NH2 [P142] | 50 µg/mL | 100 µg/mL | 100 µg/mL | 900 | 38 µg/mL | 115 µg/mL | 55 µg/mL | 44 µg/mL | 60 µg/mL | 38 µg/mL | 73 µg/mL | 73 | –
KLLKLLLKLYKKLLKLL-OH [P156] | > (> indicates greater than 200 μg/mL) | 15 µg/mL | > (> indicates greater than 200 μg/mL) | 10 | 520 µg/mL | – | > (> indicates greater than 1000) | 135 µg/mL | 260 µg/mL | 345 µg/mL | 230 µg/mL | 230 | –
FALALKALKKAL-NH2 [P144, FALALKALKKAL-NH2] | 50 µg/mL | 5 µg/mL | 50 µg/mL | 600 | 250 µg/mL | 225 µg/mL | 275 µg/mL | 150 µg/mL | 350 µg/mL | 285 µg/mL | 750 µg/mL | 750 | –
FAKLLAKLAK-NH2 [P123] | 200 µg/mL | 50 µg/mL | 100 µg/mL | 1000 | 635 µg/mL | > (> indicates greater than 1000) | 940 µg/mL | 615 µg/mL | > (> indicates greater than 1000) | > (> indicates greater than 1000) | 600 µg/mL | 600 | –
VAKLLAKLAKKVL-NH2 [P154] | 100 µg/mL | 100 µg/mL | 50 µg/mL | 450 | 330 µg/mL | 400 µg/mL | > (> indicates greater than 1000) | 315 µg/mL | 640 µg/mL | 750 µg/mL | 600 µg/mL | 600 | –
FAKKLAKKLKKLAKKLAKKWKL-NH2 [P70] | > (> indicates greater than 200 μg/mL) | 10 µg/mL | 100 µg/mL | 80 | 94 µg/mL | 63 µg/mL | 28 µg/mL | 44 µg/mL | 82 µg/mL | 11 µg/mL | 34 µg/mL | 34 | –
FAFGKGIGKIGKKGL-NH2 [P138] | > (> indicates greater than 200 μg/mL) | > (> indicates greater than 200 μg/mL) | > (> indicates greater than 200 μg/mL) | 20 | > (> indicates greater than 1000) | > (> indicates greater than 1000) | > (> indicates greater than 1000) | > (> indicates greater than 1000) | > (> indicates greater than 1000) | > (> indicates greater than 1000) | > (> indicates greater than 1000) | – | > (> indicates greater than 1000)
FKVKFKVKVK-NH2 [P303, reference compound] | – | – | – | 500 | 330 µg/mL | 345 µg/mL | > (> indicates greater than 1000) | 315 µg/mL | 530 µg/mL | 530 µg/mL | 355 µg/mL | 355 | –
FAKKLAKKLKKLAKKLIGAVLKV-OH [P99] | > (> indicates greater than 200 μg/mL) | 100 µg/mL | > (> indicates greater than 200 μg/mL) | 25 | – | – | – | – | – | – | – | – | –
FALLKL-NH2 [P168, FALLKL-NH2] | 100 µg/mL | 50 µg/mL | > (> indicates greater than 200 μg/mL) | 600 | 590 µg/mL | > (> indicates greater than 1000) | > (> indicates greater than 1000) | 630 µg/mL | > (> indicates greater than 1000) | > (> indicates greater than 1000) | > (> indicates greater than 1000) | – | > (> indicates greater than 1000)
KWKLFKKIGAVLKVL-NH2 [P53, reference compound] | 15 µg/mL | 5 µg/mL | 50 µg/mL | 20 | 40 µg/mL | 65 µg/mL | 30 µg/mL | 45 µg/mL | 40 µg/mL | – | 32 µg/mL | 32 | –
FALALKA-NH2 [P141, FALALKA-NH2] | 50 µg/mL | 15 µg/mL | 200 µg/mL | 900 | 465 µg/mL | > (> indicates greater than 1000) | > (> indicates greater than 1000) | 430 µg/mL | – | 560 µg/mL | 420 µg/mL | 420 | –
ILPWKWPWWPWRR-COOH [P91, reference compound] | > (> indicates greater than 200 μg/mL) | 10 µg/mL | > (> indicates greater than 200 μg/mL) | – | 180 µg/mL | 64 µg/mL | 20 µg/mL | 12 µg/mL | 31 µg/mL | 30 µg/mL | – | – | –
CC[C@H](C)[C@H](NC(=O)CN)C(=O)NCC(=O)N[C@@H](C)C(=O)N[C@H](C(=O)N[C@@H](CC(C)C)C(=O)N[C@@H](CCCCN)C(=O)N[C@H](C(=O)N[C@@H](CC(C)C)C(=O)N[C@H](C(=O)N[C@H](C(=O)NCC(=O)N[C@@H](CC(C)C)C(=O)N1CCC[C@H]1C(=O)N[C@@H](C)C(=O)N[C@@H](CC(C)C)C(=O)N[C@H](C(=O)N[C@@H](CO)C(=O)N[C@@H](Cc1c[nH]c2ccccc12)C(=O)N[C@H](C(=O)N[C@@H](CCCCN)C(=O)N[C@@H](CCCNC(=N)N)C(=O)N[C@@H](CCCCN)C(=O)N[C@@H](CCCNC(=N)N)C(=O)N[C@@H](CCC(N)=O)C(=O)N[C@@H](CCC(N)=O)C(N)=O)[C@@H](C)CC)[C@@H](C)CC)[C@@H](C)O)[C@@H](C)O)C(C)C)C(C)C [P108, reference compound] | > (> indicates greater than 200 μg/mL) | 5 µg/mL | 25 µg/mL | – | – | – | – | – | – | – | – | – | –
FALALKALKKLKKALKKAL-OH [P28] | – | – | – | 700 | 93 µg/mL | 54 µg/mL | 80 µg/mL | 65 µg/mL | 16 µg/mL | 59 µg/mL | 101 µg/mL | 101 | –
